Data: patent EP0253650A2, “Improvements relating to benzothiophene derivatives” (ELI LILLY AND COMPANY, priority 1986, dated 1988)

System: guinea pigs
Experiment: Antigen induced anaphylaxis in guinea pigs (ovalbumin aerosol challenge of sensitized animals)
Assay type: in vivo
Conditions: percent inhibition of anaphylaxis (severity index vs placebo), two hours prior to aerosol challenge
Procedure: Following the general procedure taught by Andersson, Brit. J. Pharmacol., 69, 467 (1980), mixed sex Hartley strain guinea pigs (250-300 g) were sensitized to ovalbumin by a single injection of 1 mcg of ovalbumin mixed with 50 mg of aluminum hydroxide per animal. These animals were used 21 to 26 days later for aerosol challenge with ovalbumin.
Anaphylaxis was induced by exposure to an aerosol of 10 mg of ovalbumin per milliliter of water for 10 minutes delivered by a Tri-R venturi nebulizer, particle size 2 to 5 micron diameter, at a delivery rate of 0.4 ml of solution per minute. The guinea pigs were placed in specially constructed chamber for exposure to the aerosol. The aerosol was introduced from the bottom of the chamber and exhausted at the top. A baffle above the chamber inlet port provided even distribution of the aerosol throughout the chamber. The animals were supported above the inlet on a wire mesh disc. The chamber was under slight negative pressure to enhance the exhaust of the aerosol which was passed through a calcium chloride trap followed by a super-cooled condenser trap.
Groups of five guinea pigs were treated with the compounds of this invention, clinical anti-asthmatic agents, or placebo (vehicle only) two hours prior to the aerosol challenge. All the animals also received 3 mg/kg pyrillamine orally two hours prior to the aerosol challenge in order to blunt the histamine component of the anaphylaxis. The compounds were administered orally as a suspension in 10% acacia or intraperitoneally in 10% acacia.
The number of animals that responded to the aerosol challenge for each of the above parameters as well as the time for the response to occur were recorded. The data were analyzed by comparing the severity index (the sum of the number of animals that coughed, collapsed, and/or died) between the treated and placebo group of guinea pigs. Thus, the maximum severity index for each group of five guinea pigs is 15. On the average, the severity index for the placebo group was 10-12. The percent inhibition of anaphylaxis was determined by the following formula: [formula] where Sd is the severity index for the drug treated animals and Sp is the severity index of the placebo treated animals.

## CCOc1cc2cc(C(=O)N(CC)CC)sc2cc1OCC [Example 3, N,N-Diethyl-5,6-diethoxybenzo[b]thiophene-2-carboxamide]
Dose 10 mg/kg, I.P.
  Percent Inhibition: 44%
Dose 30 mg/kg, I.P.
  Percent Inhibition: 89%
Dose 50 mg/kg, I.P.
  Percent Inhibition: 82%
Dose 50 mg/kg, P.O.
  Percent Inhibition: 38%

## CCOc1cc2cc(C(=O)Nc3nnn[nH]3)sc2cc1OCC [Example 4, 5,6-Diethoxy-N-1H-tetrazol-5-ylbenzo[b]thiophene-2-carboxamide]
Dose 50 mg/kg, P.O.
  Percent Inhibition: 56%

## CCOc1cc2cc(C#N)sc2cc1OCC [Example 5, 5,6-Diethoxybenzo[b]thiophene-2-carbonitrile]
Dose 30 mg/kg, I.P.
  Percent Inhibition: 69%
Dose 50 mg/kg, I.P.
  Percent Inhibition: 74-84%
Dose 50 mg/kg, P.O.
  Percent Inhibition: 22%

## CCOc1cc2cc(-c3nnn[nH]3)sc2cc1OCC [Example 6, 5-(5,6-Diethoxybenzo[b]thien-2-yl)-1H-tetrazole]
Dose 50 mg/kg, P.O.
  Percent Inhibition: 43%

## CCOc1cc2cc(CO)sc2cc1OCC [Example 7, 5,6-Diethoxybenzo[b]thiophene-2-methanol]
Dose 30 mg/kg, I.P.
  Percent Inhibition: 89%
Dose 50 mg/kg, I.P.
  Percent Inhibition: 74%
Dose 50 mg/kg, P.O.
  Percent Inhibition: 68%
